Broadly, the IC50 is the concentration needed to halve the response being measured.

Read-outs that look alike come from different tables or passages of the source.

These results are taken from patent US11491178B2, “Chitosan covalently linked with small molecule integrin antagonist for targeted delivery” (Hoffmann-La Roche Inc., priority 2012, dated 2022).

The experiment deals with T1, VLA-4 (α4β1) (Homo sapiens, UniProt P05556+P13612).
T1 construct: Jurkat cells express high levels of VLA-4 on their membrane surface; host or cells: Jurkat Clone E6-1
The experiment is described as follows: VLA-4 (α4β1) binding assay: Jurkat cell adhesion to VCAM-1-coated plates. In kind it is cell-based. As to the method: Chitosan covalently linked with small molecule α4β1 antagonists having the general structure of formula IA below were assessed for their α4β1 (VLA-4) binding affinity:
The following adhesion assay has been reported previously and used in this invention with minor modification. See U.S. Pat. Nos. 6,229,011 and 6,380,387 both of which are incorporated herein by reference in their entirety. […] Each assay was conducted in a 96-well plate with VCAM-1 used as the counter ligand for the cells (i.e., VCAM-1 was bound to the surface of the wells).
More specifically, 96-well high-binding F96 Maxisorp immuno microtiter plates (Nunc) were coated overnight with 25 ng/well of VCAM-1. […]
To assess VLA-4 inhibition by the VLA-4 targeted chitosans (from the examples), Jurkat cells (expressing high levels of VLA-4) were added to the VCAM-1-coated plates to a final concentration of 2×10^5 cells/well in 96-well plates and allowed to incubate with the test chitosans (from the examples) for 45 minutes at 37° C. After removing unbound cells by gently washing the wells with PBS, the fluorescence signal from the bound cells was read on a Tecan Safire2 microplate reader at 450 nm. Points were plotted and the IC50s of each derivatized chitosan polymer were determined by regression analysis using the linear portion of the concentration-response curve.

T1 sequence (P13612 34-1032): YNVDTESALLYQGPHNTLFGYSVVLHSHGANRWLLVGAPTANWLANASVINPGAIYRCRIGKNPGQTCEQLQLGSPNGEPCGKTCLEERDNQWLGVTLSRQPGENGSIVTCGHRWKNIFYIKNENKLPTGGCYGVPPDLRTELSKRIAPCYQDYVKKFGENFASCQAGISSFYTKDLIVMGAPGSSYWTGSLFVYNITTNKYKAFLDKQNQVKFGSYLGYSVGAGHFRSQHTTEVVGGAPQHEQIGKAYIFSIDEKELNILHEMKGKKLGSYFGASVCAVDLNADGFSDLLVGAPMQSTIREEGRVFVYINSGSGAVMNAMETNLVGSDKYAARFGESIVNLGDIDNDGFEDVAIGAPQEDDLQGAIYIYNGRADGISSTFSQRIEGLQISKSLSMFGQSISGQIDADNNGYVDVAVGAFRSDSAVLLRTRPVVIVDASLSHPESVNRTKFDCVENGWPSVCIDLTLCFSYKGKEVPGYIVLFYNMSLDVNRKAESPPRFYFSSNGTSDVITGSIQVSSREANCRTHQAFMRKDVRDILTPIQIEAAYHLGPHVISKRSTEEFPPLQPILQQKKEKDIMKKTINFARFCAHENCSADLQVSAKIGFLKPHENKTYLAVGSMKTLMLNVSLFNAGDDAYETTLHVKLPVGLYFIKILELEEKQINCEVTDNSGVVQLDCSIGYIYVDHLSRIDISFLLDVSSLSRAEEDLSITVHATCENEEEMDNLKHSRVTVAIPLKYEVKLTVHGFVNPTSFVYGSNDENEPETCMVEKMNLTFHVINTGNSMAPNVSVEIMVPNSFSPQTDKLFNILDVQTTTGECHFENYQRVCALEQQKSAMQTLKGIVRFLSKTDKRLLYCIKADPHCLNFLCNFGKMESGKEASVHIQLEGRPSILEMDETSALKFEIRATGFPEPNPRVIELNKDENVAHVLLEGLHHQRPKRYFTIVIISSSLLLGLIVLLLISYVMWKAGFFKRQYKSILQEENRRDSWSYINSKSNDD
T1 sequence (P05556 21-798): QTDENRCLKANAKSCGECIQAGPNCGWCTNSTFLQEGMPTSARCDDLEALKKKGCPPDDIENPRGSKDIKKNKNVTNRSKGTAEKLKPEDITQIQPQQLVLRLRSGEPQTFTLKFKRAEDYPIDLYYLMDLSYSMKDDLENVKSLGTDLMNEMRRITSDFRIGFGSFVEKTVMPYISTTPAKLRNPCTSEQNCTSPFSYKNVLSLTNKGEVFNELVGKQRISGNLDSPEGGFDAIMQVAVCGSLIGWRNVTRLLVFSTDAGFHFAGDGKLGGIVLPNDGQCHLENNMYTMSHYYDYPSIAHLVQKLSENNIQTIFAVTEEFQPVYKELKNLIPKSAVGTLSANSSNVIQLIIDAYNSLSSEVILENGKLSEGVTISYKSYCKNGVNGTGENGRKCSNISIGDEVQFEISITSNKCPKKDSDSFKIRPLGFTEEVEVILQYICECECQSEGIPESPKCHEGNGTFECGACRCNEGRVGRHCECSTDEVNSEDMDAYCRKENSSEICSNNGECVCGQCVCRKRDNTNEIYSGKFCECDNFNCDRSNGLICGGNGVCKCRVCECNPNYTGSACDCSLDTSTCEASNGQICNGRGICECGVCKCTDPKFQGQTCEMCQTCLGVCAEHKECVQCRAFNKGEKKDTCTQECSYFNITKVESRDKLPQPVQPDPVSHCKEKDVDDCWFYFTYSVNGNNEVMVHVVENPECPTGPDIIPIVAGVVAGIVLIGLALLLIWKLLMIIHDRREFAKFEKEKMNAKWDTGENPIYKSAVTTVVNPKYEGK

With `Cc1cccc(Cl)c1C(=O)NC(Cc1ccc(NC(=O)c2c(Cl)cccc2Cl)cc1)C(=O)O` (centres unmarked) [Control (27), reference compound], the half-maximal inhibitory concentration (IC50) is 4 nM (Jurkat cells on VCAM-1-coated plates, Mn2+ activated, 45 minutes at 37° C., Table 1, read-out: Binding IC50) and approximately 12 nM (control compound in the Jurkat/VCAM-1 adhesion assay, read-out: IC50).
